Assay results as given in PMC6518372, “An enzymatically stable GIP/xenin hybrid peptide restores GIP sensitivity, enhances beta cell function and improves glucose homeostasis in high-fat-fed mice” (Diabetologia, 2016).

How the values were obtained:
BRIN-BD11 cells = assay: In vitro insulin secretion from BRIN-BD11 cells; assay type: cell-based, rat; settings: 20 min
Method: BRIN-BD11 cells were used to assess the insulin-releasing activity of test peptides, as described previously. This hybrid cell line (ECACC 10033003) was originally generated in-house by electrofusion of a primary culture of New England Deaconess Hospital (NEDH) rat pancreatic islets with RINm5F (a cell line derived from an NEDH rat insulinoma), and has been mycoplasma eradicated. For details of experimental conditions please see ESM Methods. Insulin was measured by radioimmunoassay. We assessed the impact of GIP and neurotensin receptors on (DAla^2)GIP/xenin-8-Gln-induced insulin secretion in BRIN-BD11 cells. Cells were incubated in 5.6 mmol/l glucose with (DAla^2)GIP/xenin-8-Gln (10^−6 mol/l) alone or in combination with the GIP receptor antagonist GIP(6-30)Cex-K^40[Pal] [32] (where Pal is palmitate) or the neurotensin receptor antagonist SR142948A (Sigma, Poole, UK), and insulin secretion determined as described above. In addition, to determine mechanisms, intracellular Ca^2+ was also measured in BRIN-BD11 cells following treatment with test peptides (10^−6 mol/l), using a Flexstation scanning fluorometer (FLIPR Calcium 5 assay kit; Molecular Devices, Sunnyvale, CA, USA), as described previously.
In vitro insulin release studies Cells were seeded at a density of 150,000 cells/well in 24-well plates (Nunc, Roskilde, Denmark) and allowed to attach overnight at 37 °C. Culture medium was removed and cells were pre-incubated in Krebs–Ringer bicarbonate buffer (containing 0.5% (w/v) BSA, pH 7.4) supplemented with 1.1 mmol/l glucose for 40 min at 37 °C. Following the pre-incubation, experiments (n=8) were performed in presence of glucose (5.6 or 16.7 mmol/l) with a […]
incubations, aliquots of assay buffer were collected from each well and stored at -20 °C prior to […]
(§1) Acute in vivo effects in lean mice For food intake studies, fasted (18 h) mice were given intraperitoneal (i.p) injections of peptides at a dose of 25, 100 or 250 nmol/kg bw. Mice were then allowed free access to normal chow for 180 mins and cumulative food intake measured. […]

lean control mice = assay: Acute cumulative food intake in lean mice; assay type: in vivo, mouse; settings: 250 nmol/kg i.p., 18 h fasted lean mice, 180 min post injection, vs saline
Method: Animals Acute animal studies were conducted in male NIH Swiss mice (12-14 weeks old, Harlan Ltd, UK) maintained on a standard rodent maintenance diet (10% fat, 30% protein and 60% carbohydrate, Trouw Nutrition, UK). Prior to commencement of longer term studies, all animals, except lean controls that continued on rodent maintenance diet, were maintained on a high-fat diet (45% fat, 35% carbohydrate and 20% protein, Special Diet Services, UK) for 12 weeks. This diet […]
individually in an air-conditioned room at 22 ± 2 °C with a 12 h light:12 h dark cycle and had free access to food and water. Animal experiments were carried out in accordance with the UK Animals (Scientific Procedures) Act 1986.
as §1, with “measured. For glucose homeostasis and” for “measured.”

Compound: CC[C@H](C)[C@H](NC(=O)[C@H](CO)NC(=O)[C@H](Cc1ccc(O)cc1)NC(=O)[C@H](CC(=O)O)NC(=O)[C@H](CO)NC(=O)[C@@H](NC(=O)[C@H](Cc1ccccc1)NC(=O)[C@@H](NC(=O)CNC(=O)[C@H](CCC(=O)O)NC(=O)[C@@H](C)NC(=O)[C@@H](N)Cc1ccc(O)cc1)[C@@H](C)O)[C@@H](C)CC)C(=O)N[C@@H](C)C(=O)N[C@@H](CCSC)C(=O)N[C@@H](CC(=O)O)C(=O)N[C@@H](CCCCN)C(=O)N[C@H](C(=O)N[C@@H](Cc1c[nH]cn1)C(=O)N[C@@H](CCC(N)=O)C(=O)N[C@@H](CCC(N)=O)C(=O)N[C@@H](CC(=O)O)C(=O)N[C@@H](Cc1ccccc1)C(=O)N[C@H](C(=O)N[C@@H](CC(N)=O)C(=O)N[C@@H](Cc1c[nH]c2ccccc12)C(=O)N[C@@H](CC(C)C)C(=O)N[C@@H](CC(C)C)C(=O)N[C@@H](C)C(=O)N[C@@H](CCC(N)=O)C(=O)N[C@@H](CCCCN)C(=O)NCC(=O)N[C@@H](CCCCN)C(=O)N[C@@H](CCCCN)C(=O)N[C@@H](CC(N)=O)C(=O)N[C@@H](CC(=O)O)C(=O)N[C@@H](Cc1c[nH]c2ccccc12)C(=O)N[C@@H](CCCCN)C(=O)N[C@@H](Cc1c[nH]cn1)C(=O)N[C@@H](CC(N)=O)C(=O)N[C@H](C(=O)N[C@H](C(=O)N[C@@H](CCC(N)=O)C(=O)O)[C@@H](C)O)[C@@H](C)CC)C(C)C)[C@@H](C)CC [(DAla^2)GIP]
- Peptide-mediated insulin secretion in presence of GIP receptor antagonist GIP(6-30)Cex-K^40[Pal] (BRIN-BD11 cells; peptide 10^−6 mol/l, antagonist 10^−6 mol/l, 5.6 mmol/l glucose): completely annulled
- Insulin release from BRIN-BD11 cells (BRIN-BD11 cells; peptide 10^−8 mol/l, 5.6 or 16.7 mmol/l glucose, vs respective glucose controls): significant (p < 0.01 to p < 0.001) increase in insulin release
- Cumulative food intake (lean control mice): all peptides except (DAla^2)GIP induced significant (p < 0.05 to p < 0.01) reductions
